From US9695191B2, “Conformationally constrained, fully synthetic macrocyclic compounds” (POLYPHOR AG, priority 2009, dated 2017)

Key:
[1] = Metabolic stability, human microsomes; type: in vitro ADME; conditions: 37° C.; for Metabolic Stability 60 min hum: % of the initial 0 minutes value at 60 min, 10 μM
Method: (§1) Microsomes from a human 50 donor mixed gender pool and 1:1 mixtures of microsomes from CD-1 mouse single-gender pools are purchased from Celsis (Belgium). The enzymatic reaction is performed in a buffer containing an NADPH regeneration system and microsomes with the following end concentrations: 100 mM potassium phosphate buffer (all from Sigma), 1 mg/mL glucose-6-phosphate, 1 mg/mL β-nicotinamide adenine dinucleotide phosphate (NADP), 0.65 mg/mL magnesium chloride, 0.8 units/mL of glucose-6-phosphate dehydrogenase (prediluted with 5 mM citrate buffer), 10 μM compound and 1 mg/ml microsomal protein. Compounds are incubated at 37° C. in duplicates and samples are taken after 0, 20 and 60 minutes. After acetonitrile precipitation (2 volumes) and HPLC/MS/MS analysis metabolic turnover is expressed in % of the initial 0 minutes value and half life T½ (min) is calculated. Verapamil for human and propranolol for mouse are used as reference and are assayed with every experimental set. • F. P. Guengerich, Analysis and Characterization of Enzymes; in: Principles and Methods of Toxicology; A. W. Hayes (Ed.) Raven Press: New York, 1989, 777-813. • R. Singh et al., In vitro metabolism of a potent HIV-protease inhibitor (141W94) using rat, monkey and human liver S9, Rapid Commun. Mass Spectrom. 1996, 10, 1019-1026. 5. Results

[2] = Metabolic stability, CD-1 mouse microsomes; type: in vitro ADME; conditions: 37° C.; for Metabolic Stability 60 min mouse: % of the initial 0 minutes value at 60 min, 10 μM
Method: as §1

[3] = human, 10 μM
Method: (§2) Example compounds were dissolved in DMSO/H2O 90:10 to a final concentration of 10 mM for plasma stability determination and metabolic stability determination.
(§3) Human plasma (3-5 donors, Blutspendedienst SRK, Basel) and CD-1 mouse plasma (mixed gender pool>50 animals, Innovative Research, CA, USA) are both sodium citrate stabilized. The assay is performed in triplicates at 10 μM compound concentration and 37° C. Samples are taken at 0, 15, 60, and 240 minutes and stopped by precipitation with 2 volumes of acetonitrile. The supernatant is collected, evaporated and reconstituted in a 5% acetonitrile solution to be analyzed by HPLC/MS/MS. The resulting peak area counts are expressed in percent of the 0 value and used to determine the endpoint stability in % and the half life T½ in minutes. In order to monitor assay integrity the degradation of propantheline is assayed with every experimental set

[4] = both, CD-1, mouse, 10 μM
Method: as §2, §3

[5] = 10 μM compound, 1 mg/ml microsomal protein, sampling up to 60 min

Structure (SMILES) | Metabolic Stability 60 min hum [1] | Metabolic Stability 60 min mouse [2] | Plasma Stability 240 min hum [3] | Plasma Stability 240 min mouse [4] | Metabolic Stability T ½ [min] hum [1, 5] | Metabolic Stability T ½ [min] mouse [2, 5]
CN1CCC[C@H](NC(=O)OCc2ccccc2)C(=O)N2C[C@@H](NC(=O)Cc3ccc4ccccc4c3)C[C@H]2COc2cccc(c2)C1=O [Ex. 184, benzyl N-[(4S,6S,10S)-14-methyl-6-{[2-(2-naphthyl)acetyl]amino}-9,15-dioxo-2-oxa-8,14-diazatricyclo[14.3.1.0^4,8]icosa-1(20),16,18-trien-10-yl]carbamate] | 0% | 0% | 66% | 58% |  | 
CN1CC(=O)N2C[C@H](NC(=O)Cc3ccc4ccccc4c3)C[C@H]2COc2ccc(cc2)C(=O)N(C)[C@H](C(=O)N2CCCC2)CCC1=O [Ex. 264, N-[(4S,6R,15S)-11,16-dimethyl-9,12,17-trioxo-15-(1-pyrrolidinylcarbonyl)-2-oxa-8,11,16-triazatricyclo[16.2.2.0^4,8]docosa-1(20),18,21-trien-6-yl]-2-(2-naphthyl)acetamide] |  | 32% | 94% | 88% |  | 
CN(C)CCNC(=O)[C@H]1CCC(=O)N(C)CC(=O)N2CCN(C(=O)Cc3ccc4ccccc4c3)C[C@@H]2COc2ccc(F)cc2C(=O)N1C [Ex. 138, (12R,20aR)-N-[2-(dimethylamino)ethyl]-16-fluoro-8,13-dimethyl-2-[2-(2-naphthyl)acetyl]-6,9,14-trioxo-1,2,3,4,7,8,9,10,11,12,13,14,20,20a-tetradecahydro-6H-pyrazino[2,1-c][1,4,7,12] benzoxatriazacyclopentadecine-12-carboxamide] | 62% | 99% | 89% | 78% |  | 
CCCCC(=O)N[C@@H]1C[C@H]2COc3ccc(F)cc3C(=O)N(C)[C@H](C(=O)N(C)CCN(C)C)CCC(=O)N(C)CC(=O)N2C1 [Ex. 78, (2R,11S,19aS)-N-[2-(dimethylamino)ethyl]-15-fluoro-N,7,12-trimethyl-5,8,13-trioxo-2-(pentanoylamino)-2,3,6,7,8,9,10,11,12,13,19,19a-dodecahydro-1H,5H-pyrrolo[2,1-c][1,4,7,12]benzoxatriazacyclopentadecine-11-carboxamide] | 78% | 100% | 65% | 100% |  | 
CCCCCCCCCC(=O)N[C@H]1CN(C)C(=O)c2cccc(c2)OC[C@@H]2C[C@H](NC(=O)Cc3c[nH]c4ccccc34)CN2C(=O)CN(C)C1=O [Ex. 213, N-[(4S,6S,13S)-6-{[2-(1H-indol-3-yl)acetyl]amino)-11,15-dimethyl-9,12,16-trioxo-2-oxa-8,11,15-triazatricyclo[15.3.1.0^4,8]henicosa-1(21),17,19-trien-13-yl]decanamide] | 0% | 4% |  |  |  | 
CN(C)CCNC(=O)[C@@H]1CCC(=O)N(C)CC(=O)N2C[C@@H](NC(=O)Cc3cccc4ccccc34)C[C@H]2COc2ccc(F)cc2C(=O)N1C [Ex. 49, (2S,11S,19aS)-N-[2-(dimethylamino)ethyl]-15-fluoro-7,12-dimethyl-2-{[2-(1-naphthyl)acetyl]amino}-5,8,13-trioxo-2,3,6,7,8,9,10,11,12,13,19,19a-dodecahydro-1H,5H-pyrrolo[2,1-c][1,4,7,12]benzoxatriazacyclopentadecine-11-carboxamide] | 10% | 83% | 83% | 96% |  | 
CN(C)CC(=O)N[C@@H]1C[C@H]2COc3cccc(c3)C(=O)N(C)C[C@H](NC(=O)Cc3ccc4ccccc4c3)C(=O)N(C)CC(=O)N2C1 [Ex. 230, 2-(dimethylamino)-N-[(4S,6R,13S)-11,15-dimethyl-13-{[2-(2-naphthyl)acetyl]amino}-9,12,16-trioxo-2-oxa-8,11,15-triazatricyclo[15.3.1.0^4,8]henicosa-1(21),17,19-trien-6-yl]acetamide] | 61% | 90% | 100% | 95% |  | 
CCN(CC)[C@H]1C[C@H]2COc3ccc(F)cc3C(=O)N(C)[C@H](C(=O)N3CCCC3)CCC(=O)N(C)CC(=O)N2C1 [Ex. 43, (2S,11S,19aS)-2-(diethylamino)-15-fluoro-7,12-dimethyl-11-(1-pyrrolidinylcarbonyl)-2,3,6,7,9,10,11,12,19,19a-decahydro-1H,5H-pyrrolo[2,1-c][1,4,7,12] benzoxatriazacyclopentadecine-5,8,13-trione] | 100% | 98% | 82% | 89% |  | 
CN1C[C@H](NC(=O)OCc2ccccc2)C(=O)N(C)CC(=O)N2C[C@@H](NC(=O)Cc3c[nH]c4ccccc34)C[C@H]2COc2cccc(c2)C1=O [Ex. 200, benzyl N-[(4S,6S,13S)-6-{[2-(1H-indol-3-yl)acetyl]amino}-11,15-dimethyl-9,12,16-trioxo-2-oxa-8,11,15-triazatricyclo[15.3.1.0^4,8]henicosa-1(21),17,19-trien-13-yl]carbamate] | 12% | 26% | 91% | 100% |  | 
CN(C)CCNC(=O)[C@@H]1CCC(=O)N(C)CC(=O)N2C[C@@H](NC(=O)Cc3c[nH]c4ccccc34)C[C@H]2COc2ccc(F)cc2C(=O)N1C [Ex. 11, (2S,11S,19aS)-N-[2-(dimethylamino)ethyl]-15-fluoro-2-{[2-(1H-indol-3-yl)acetyl]amino}-7,12-dimethyl-5,8,13-trioxo-2,3,6,7,8,9,10,11,12,13,19,19a-dodecahydro-1H,5H-pyrrolo [2,1-c][1,4,7,12]benzoxatriazacyclopentadecine-11-carboxamide] | 74% | 77% | 100% | 100% |  | 
CN1CC(=O)N2C[C@@H](NC(=O)CCC(=O)O)C[C@H]2COc2ccc(F)cc2C(=O)N(C)[C@@H](C(=O)NCc2ccc3ccccc3c2)CCC1=O [Ex. 95, 4-[((2S,11R,19aS)-15-fluoro-7,12-dimethyl-11-{[(2-naphthylmethyl)amino]carbonyl}-5,8,13-trioxo-2,3,6,7,8,9,10,11,12,13,19,19a-dodecahydro-1H,5H-pyrrolo [2,1-c][1,4,7,12]benzoxatriazacyclopentadecin-2-yl)amino]-4-oxobutanoic acid] | 76% | 94% | 100% | 93% | 60 min | 60 min
CN1CC(=O)N2C[C@H](NC(=O)CCC(=O)O)C[C@H]2COc2ccc(cc2)C(=O)N(C)[C@H](C(=O)NCc2ccncc2)CCC1=O [Ex. 267, 4-{[(4S,6R,15S)-11,16-dimethyl-9,12,17-trioxo-15-{[(4-pyridinylmethyl)amino]carbonyl}-2-oxa-8,11,16-triazatricyclo [16.2.2.0^4,8]docosa-1(20),18,21-trien-6-yl]amino}-4-oxobutanoic acid] | 99% | 100% | 75% | 79% |  | 
CNC(=O)[C@H]1CCC(=O)N(C)CC(=O)N2C[C@@H](NC(=O)Cc3ccc4ccccc4c3)C[C@H]2COc2ccc(F)cc2C(=O)N1C [Ex. 93, (2S,11R,19aS)-15-fluoro-N,7,12-trimethyl-2-{[2-(2-naphthyl)acetyl]amino}-5,8,13-trioxo-2,3,6,7,8,9,10,11,12,13,19,19a-dodecahydro-1H,5H-pyrrolo[2,1-c][1,4,7,12] benzoxatriazacyclopentadecine-11-carboxamide] | 1% | 15% | 100% | 100% |  | 
CCN(CC)[C@@H]1C[C@H]2COc3ccc(cc3)C(=O)N(C)[C@H](C(=O)NCc3ccc4ccccc4c3)CCC(=O)N(C)CC(=O)N2C1 [Ex. 262, (4S,6R,15S)-6-(diethylamino)-11,16-dimethyl-N-(2-naphthylmethyl)-9,12,17-trioxo-2-oxa-8,11,16-triazatricyclo [16.2.2.0^4,8]docosa-1(20),18,21-triene-15-carboxamide] | 0% | 4% | 100% | 93% |  | 
